Assay results from paper PMC11923874, “Integration of Phytomelatonin Signaling With Jasmonic Acid in Wound‐induced Adventitious Root Regeneration” (Advanced Science, 2025).

What was measured:
[1] = target: T1, SlPMTR1; experiment: microscale thermophoresis (GFP fusion); format: binding, Solanum lycopersicum; conditions: 22 °C, 30 min incubation; His-MBP-GFP fusion protein at 1 mg/ml
T1 construct: 6xHis-MBP-SlPMTR1-GFP fusion, pMAL-c2, E. coli Rosetta (DE3), Ni-NTA purified; seven-transmembrane protein; native length 300 residues (fragments 1-134 and 135-300); tags kept

[2] = target: T2, SlPMTR2 (Solanum lycopersicum, UniProt A0A3Q7GXJ6); experiment: microscale thermophoresis (GFP fusion); format: binding
T2 construct: gene LOC101260652; 6xHis-MBP-SlPMTR2-GFP fusion, pMAL-c2, E. coli Rosetta (DE3), Ni-NTA purified; seven-transmembrane protein; native length 309 residues (fragments 1-140 and 141-309); tags kept
T2 sequence (A0A3Q7GXJ6 1-309): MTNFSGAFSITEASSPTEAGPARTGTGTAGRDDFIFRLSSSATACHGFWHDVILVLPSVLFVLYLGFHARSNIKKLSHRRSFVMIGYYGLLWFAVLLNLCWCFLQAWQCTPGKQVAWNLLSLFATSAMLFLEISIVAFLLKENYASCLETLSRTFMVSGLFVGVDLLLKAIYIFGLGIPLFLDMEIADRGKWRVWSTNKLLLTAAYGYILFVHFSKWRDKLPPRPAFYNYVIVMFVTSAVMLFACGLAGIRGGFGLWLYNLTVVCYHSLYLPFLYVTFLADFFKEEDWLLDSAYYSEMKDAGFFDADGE

Kd [1]: 50.7 nM
Kd [2]: 419 nM
Structure (SMILES): COc1ccc2[nH]cc(CCNC(C)=O)c2c1 [melatonin]
